Consider two molecules from patent US20110293745A1, “AURORA KINASE INHIBITORS” (SUNESIS PHARMACEUTICALS, INC., priority 2008, published 2011).

Broadly, the IC50 is the concentration needed to halve the response being measured. For orientation: half-life means the time in which the quantity being followed falls by half. As usually defined, the AUC(0-inf) is the area under the concentration-time curve extrapolated to infinity. For orientation: clearance means the rate of elimination divided by the concentration. A low value points to inefficient removal.

Data set [1] in a line: Distribution of compound in tumor and plasma, HCT 116 xenograft mice. Type of data set: in vivo, mouse. To be noted: for half-life: female, nu/nu athymic, mouse, ip, 170 mg/kg. As to the method:
The studies in Examples 20, 21, and 22 used female mice nu/nu athymic mice. Compound 1 was formulated fresh each week for dosing. […] HCT 116 colorectal carcinoma cells were implanted in the animals' right hind flanks subcutaneously with 200 μL of a 2.5×10^7 cells/mL suspension [1:1 Dulbecco's PBS (DPBS) with cells:Matrigel™. […] Dosing schedules are provided separately for each of the studies in Examples 28, 29, and 30. […] Terminal blood and tumor samples were harvested between 15 min and 96 hr. Female nu/nu athymic mice received HCT 116 colorectal cancer cell suspension (1:1 DPBS with cells:Matrigel) as a subcutaneous injection in the right hind flank. […] For HPLC-MS/MS, the detector consisted of an API4000 (Sciex/ABI, Foster City, Calif.) triple quadrapole mass spectrometer using turbo electrospray ionization.

Data set [2] relates to HCT 116 colon cancer xenograft. Kind of data set: In vivo efficacy, mouse xenograft.
In the next data set the test system is MDA-MB-231. Kind of data set: cells. To be noted: Homo sapiens, MDA-MB-231, 96 h, read-out: BrdU IC50. The method, then:
(§1) Cellular proliferation was assessed using the Cell Proliferation ELISA, bromodeoxyuridine (BrdU) kit (Roche) including reagents, according to the kit protocol.

The next data set deals with A2780. The data set is described as follows: cells. As to conditions: Homo sapiens, A2780, 96 h, read-out: BrdU IC50. The method, then: as §1
A further data set deals with A375. Kind of data set: cells. As to conditions: Homo sapiens, A-375, 96 h, read-out: BrdU IC50. The method, then:
as §1

The next data set concerns HeLa. Kind of data set: cells. As to conditions: Homo sapiens, 96 h, read-out: BrdU IC50. The method, then: as §1
The subject of another data set is PC3. Kind of data set: cells. As to conditions: Homo sapiens, PC-3, 96 h, read-out: BrdU IC50. As to the method:
as §1

A further data set deals with HCT116. Kind of data set: cells. As to conditions: Homo sapiens, HCT-116, 96 h, read-out: BrdU IC50. The method, then:
as §1

A further data set has as its system Calu-6. Kind of data set: cells. As to conditions: Homo sapiens, Calu-6, 96 h, read-out: BrdU IC50. The method, then:
as §1

In the next data set the test system is H1299. The data set is described as follows: cells. As to conditions: Homo sapiens, NCI-H1299, 96 h, read-out: BrdU IC50. As to the method:
as §1

The next data set concerns A375 melanoma xenograft. The data set is described as follows: In vivo efficacy, mouse xenograft. As to the method: Percent TGI is then calculated with the following equation: […]
Time To Endpoint (TTE) was calculated for each individual animal to reach the predetermined study end point where the tumor volume becomes 1200 mm^3 or 10% of body weight or a greater than 20% body weight loss for two sequential measurements. The TTE is calculated and the median value is recorded for the group. Tumor Growth Delay (TGD) is then calculated with the following equation: […]
A375 melanoma tumor fragments (1 mm^3) were implanted subcutaneously in the right hind flank of mice. After 9 days, when tumors reached an average volume of approximately 110 mm^3, animals were weighed, randomized by tumor volume (l×w×h×0.52), and assigned to the various study groups before initial dosing.

Another data set deals with HCT 116 cells. The data set is described as follows: Flow cytometry, DNA content (propidium iodide). Type of data set: cell-based, human. To be noted: 36 nM, 16 hours. The method, then: HCT 116 cells were seeded at 10,000 cells per well in 12-well plates and cells were incubated 24 hr at 37° C. […] After 16 hrs, media was aspirated and placed in a labeled collection tube, cells were trypsinized with 100 μL trypsin for 5 min at room temperature, quenched with fresh media, and placed in the collection tube with their appropriate media aspirate. Cells were spun at 2000 RPM for 5 min, supernatant was aspirated, and cells were re-suspended in 50 μl, 1× phosphate buffered saline (PBS) and 200 μL 100% methanol. Samples were then placed at −20° C. Cells fixed in methanol were spun at 2000 RPM for 5 min, supernatant was removed and cells were washed with 500 μL 0.1% bovine serum albumin (BSA) in PBS. Cells were re-suspended in 100 μL propidium iodide (PI) staining solution [prepared from 10 μg/mL PI (Sigma #P4864), 100 μg/mL RNase (Sigma #R4642) in PBS] and incubated at 37° C. for 1 hr. Cell populations were then analyzed by flow cytometry on Fluorescence-Activated Cell Sorter (FACS) instrumentation (FACSCalibur; Becton-Dickinson) according to common techniques. The distribution of cells in the various phases of cell cycle was assessed by propidium iodide (PI) staining of DNA. The total intensity of PI was considered to reflect the DNA content of cells.

Data set [3] relates to pHH3 in HCT 116 xenograft tumor. Kind of data set: Plasma concentration versus pHH3 in tumor (Western blot, ELISA, HPLC-MS/MS). Type of data set: in vivo, mouse. In general terms: In western blotting, separated proteins are transferred to a membrane and probed.
Experimental: When tumors reached an average volume of 400 mm^3, mice were sorted into randomized groups of 3 per time point. […] Tumor samples were frozen on liquid nitrogen, and ground into a fine powder. Lysis buffer containing phosphatase inhibitors was added to the tumor powder before homogenization and a snap freeze cycle. The cellular debris was removed by centrifugation, and the protein concentration was measured using the BioRad DC Protein Assay. […] Protein was transferred to PVDF membrane at a constant 30 V for 1 hr using the Invitrogen XCell II Blot Module transfer system and, upon completion, the membranes were incubated with 5% milk in TBST (Tris-buffered saline with Tween) at room temperature for 1 hr. […] Membranes were washed with TBST, and antibodies were detected with ECL Plus chemiluminescent detection system (Amersham), followed by exposure to Kodak BioMax film.
Films were visually assessed for total histone H3 (HH3) and histone H3 phosphorylation (pHH3). Total HH3 levels served as loading controls.
Phospho-histone H3 levels were determined using a commercial ELISA kit from (# KHO0671, Biosource/Invitrogen). The conditions were as described by the manufacturer with 100 μg total proteins from tumor lysates prepared as described in this Example.
Preparation of Plasma Samples. […]
The nature of data set [4]: Pharmacokinetics, single bolus intravenous injection. Type of data set: in vivo, CD-1 mice. To be noted: CD-1, mouse, plasma, 5 mg/kg. From the text: Pharmacokinetic parameters were estimated using noncompartmental analysis within WinNonlin v. 4.1. Quantification of Compound 2 was done by HPLC-MS/MS after extraction from plasma with acetonitrile. […] For rising dose experiments measuring exposure for each species, sets containing several animals were singly dosed at a given dose. Results from single-dose experiments are shown in FIG. 10A, Table 43, and in FIG. 10B and Table 44, respectively. […] C0 is initial concentration extrapolated to time zero. AUCINF is area under the plasma-concentration time curve from time zero extrapolated to the infinite time. CL is clearance; Vss is steady state volume of distribution. T1/2 is half-life.

A short description of data set [5]: Mass balance, elimination, autoradiography and metabolites with 14C-label. It is filed as in vivo. As to conditions: IV bolus 50 mg/kg, male rats, whole-body autoradiography.

For `CS(=O)(=O)O.O=C(Nc1cccc(Cl)c1)Nc1ncc(CCNc2ncnc3ccsc23)s1` [Compound 1, 1-(3-chlorophenyl)-3-{5-[2-(thieno[3,2-d]pyrimidin-4-ylamino)ethyl]thiazo}-urea], in data set [1] (post-dose), the “time measurable drug levels are sustained in the HCT 116 tumor” value is “more than 96 hours”. For the same molecule, the “% TGI (Day 36)” value in data set [2] (100 mg/kg, qd × 5, 9 d off × 2) was found to be 91.6%; in [2] (125 mg/kg, Qw × 3), 79.8%; in data set [2] (150 mg/kg, biw × 3), 95.6%. Further, the half-inhibitory concentration (IC50) stood at 8.1 nM in the data set on MDA-MB-231; 1.8 nM with A2780; 5.9 nM in the data set on A375; 9.3 nM in the data set with HeLa; 4.4 nM in the data set on PC3; 6.4 nM with HCT116. The results for the half-maximal inhibitory concentration (IC50) with Calu-6 and with H1299 were 13.3 nM and 4 nM, respectively. Also, the “% TGI” value in the data set on A375 melanoma xenograft (42.5 mg/kg biw × 3) is recorded as 1.2%; in the data set with A375 melanoma xenograft (85 mg/kg biw × 3) it was 20.6%; in the data set with A375 melanoma xenograft (170 mg/kg biw × 3), 65.4%. For the same molecule, the TGD came to 0 days with A375 melanoma xenograft (42.5 mg/kg biw × 3), 0 days in the data set with A375 melanoma xenograft (85 mg/kg biw × 3) and 7.4 days in the data set with A375 melanoma xenograft (170 mg/kg biw × 3). In addition, in the data set on HCT 116 cells, the “DNA content of cells” value is “predominantly 4N and 8N DNA content”. For the same molecule, the “time maximal inhibition of phospho-histone H3 in tumor was maintained” value in data set [3] (single dose of 170 mg/kg IP) was “up to 24 hours”.
Turning to `O=C(Nc1cccc(Cl)c1)Nc1ncc(CCNc2ncnc3ccsc23)s1` [Compound 2, 1-(3-chlorophenyl)-3-{5-[2-(thieno[3,2-d]pyrimidin-4-ylamino)ethyl]thiazol-2-yl}-urea], in data set [1] (plasma, read-out: half-life in plasma (converted)), the half-life was 4.7 h. In data set [1] (tumor, read-out: half-life in tumor (converted)), the half-life was 7.5 h. Moreover, in [4], the total exposure AUC(0-inf) is 1800 ng·h/mL, the C0 was 7100 ng/mL, the clearance is 47.6 mL/min/kg and the half-life is 1.4 h. The Vd in [4] (read-out: Vss) amounted to 1 L/kg. Also, the “time of maximum tissue concentrations of radioactivity” value in data set [5] worked out at 1 h. The “plasma concentration that produced maximal inhibition of phosphorylation of Histone H3 in tumor” value in [3] (1 hr postdose, HCT 116 xenograft mice, FIG. 43B) stood at 5 µM.
